As a reminder, the IC50 is the midpoint of a concentration-inhibition curve. As a reminder, the Tmax is the time at which the peak concentration occurs. The term bioavailability denotes the share of a dose that reaches the circulation, judged against a reference dose that is usually intravenous.

Series [1] deals with T1, URAT-1 (Homo sapiens, UniProt Q96S37).
T1 construct: expressed in transfected cells; host or cells: MDCK
T1 sequence (Q96S37 1-553): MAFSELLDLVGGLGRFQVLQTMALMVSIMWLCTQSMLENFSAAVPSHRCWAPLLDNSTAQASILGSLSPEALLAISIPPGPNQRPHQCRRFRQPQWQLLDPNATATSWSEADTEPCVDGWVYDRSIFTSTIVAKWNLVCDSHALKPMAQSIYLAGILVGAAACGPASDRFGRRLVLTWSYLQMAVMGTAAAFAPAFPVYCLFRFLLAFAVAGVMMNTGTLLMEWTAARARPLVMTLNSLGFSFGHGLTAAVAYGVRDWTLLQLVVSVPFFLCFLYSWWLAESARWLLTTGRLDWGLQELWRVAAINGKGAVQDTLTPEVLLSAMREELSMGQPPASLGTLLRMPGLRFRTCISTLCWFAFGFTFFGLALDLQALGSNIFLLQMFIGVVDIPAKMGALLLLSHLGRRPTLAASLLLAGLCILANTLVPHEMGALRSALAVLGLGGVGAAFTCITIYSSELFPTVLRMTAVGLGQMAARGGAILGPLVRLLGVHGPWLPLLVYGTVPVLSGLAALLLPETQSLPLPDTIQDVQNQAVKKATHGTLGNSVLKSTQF
Put plainly: Inhibition of 14C-labelled uric acid transport in MDCK cell line stably transfected with the URAT-1 gene. The settings on record: for IC50: MDCK cells stably transfected with URAT-1, 14C uric acid 50 uM, read-out: IC50 against URAT-1. Format: cell-based. An excerpt:
The inventors examined the ability of these compounds to inhibit the transport of labeled uric acid by MDCK cell lines stably transfected with the human URAT1 gene.
Determination of the IC50 value of the inhibitory activity of the compound against uric acid reabsorption by the MDCK cell line stably transfected with the URAT-1 (uric acid transporter) gene.
URAT-1 (MDCK) cell line: the MDCK cell line stably transfected with the URAT-1 gene
Cell culture medium: MEM culture medium added 10% fetal bovine serum (FBS), 1% sodium pyruvate and 250 ug/ml G418.
4) cells were diluted to 2.5×10^5/mL with the culture medium, and the diluted cells were added into a rat tail collagen-coated 24-well plate (800 uL/well, 2×10^5 cells/well). The plate was incubated overnight at 37° C. in a 5% CO2 incubator.
1) cells were seeded into 24-well plate, and supernatant was discarded after 16-18 h. The cells were washed twice using 600 ul HBSS buffer.
2) HBSS buffer was removed and 180 ul of HBSS buffer was added into each well again.
1) powder of compounds was dissolved into 100% DMSO, and diluted into 6 concentration points by 3-fold dilution, or into 2 concentration points by 10-fold dilution, and the highest starting concentration was 50 mM.
2) 5 ul DMSO solution in step 1) was transferred into 120 ul of HBSS buffer to make a 25-fold dilution.
3) 10 ul diluted solution in step 2) was added into 24-well plate, and the plate was incubated for 15 min at 37° C. in a 5% CO2 incubator. The final concentration of DMSO was 0.2%. The control well contained 0.2% DMSO without compound.
^14C-labelled uric acid was diluted and added into plate, and the final concentration was 50 uM. The plate was incubated for 10 min at 37° C. in a 5% CO2 incubator. After supernatant was discarded, cells were washed with HBSS buffer twice. Cells was lysed with 0.1M NaOH. And then cell lysis solution was collected into liquid scintillation tube and added with liquid scintillation solution. The signal was read by liquid scintillation counter Tri-Carb.
URAT-1 inhibition by the treatment of the compounds was analyzed by calculating the percentage of inhibition according to […] data. Non-linear curve fitting analysis on the percent inhibition (inh %) data using GraphPad Prism software generate the IC50 value.

For series [2] the following is noted: human, 0-144 h, after Lesinurad, cited from earlier work.
Series [3] can be described thus: Metabolite identification after 120 min incubation in human hepatocytes (LC-UV-MSn). Format: in vitro ADME. The settings on record: for metabolites detected: human hepatocyte metabolism, same condition as (±)-Lesinurad; for Percentage of ultraviolet area: human hepatocytes, 10 μM, 120 min. The protocol:
The purpose of this experiment was to confirm the metabolites of a series of compounds after incubation for 120 minutes in human hepatocytes using LC-UV-MS^n (n=1-2) detection. MS and MS^2 data were analyzed using MetaboLynx™ software after data collection.
Alter incubating the sample for 2 h, the protein was precipitated by using acetonitrile containing 01.% formic acid, centrifuged, and the supernatant was taken out and dried an under nitrogen, and dissolved and then injected for analysis.

Series [4] can be described thus: Pharmacokinetics in SD rats after IV and PO administration. In kind it is in vivo. The settings on record: rat; for MRT inf: read-out: Detention time MRT0-inf; for half-life: read-out: Half-life T1/2 (converted); for C0: read-out: Starting concentration C0; for Cmax: read-out: Peak concentration Cmax. The protocol:
Drug concentrations in plasma of (−)-WX001 and (+)-WX002 were measured by LC/MS/MS method at different times after SD rats as tested animals were administered (−)-WX001 and (+)-WX002 by IV (intravenous injection) and PO (gavage), and the pharmacokinetic behavior of the compound in the present invention in rats was investigated, and its pharmacokinetic characteristics were evaluated.
12 healthy adult male SD rats were divided into 4 groups (each compound contained IV and PO group), 3 rats per group. SD rats were purchased from Shanghai Slac Laboratory Animal CO.LTD, whose animal production license number was SCXK (Shanghai) 2012-0002.
The appropriate amount of the sample was weighed, added a certain amount of DMSO and ultrasonic dissolved, and then was added 20% hydroxypropyl-β-cyclodextrin solution to give tested compound which was 1 mg/mL 5% DMSO/95% 20% HPCD clear solution used for IV and PO administration.
12 SD rats were divided into 4 groups and there were 3 male rats in each group, and administrated by IV, PO, respectively after fasting overnight. The dose of IV was 2 mg/kg and administration volume was 2 mL/kg; the dose of PO was 10 mg/kg and administration volume was 10 mL/kg.
In group of IV, about 200 μL of blood was collected at 0.083, 0.25, 0.5, 1, 2, 4, 6, 8, 24 hour after administration, placed in an anticoagulant tube of K2-EDTA, centrifuged at 3000 rpm for 15 minutes, and then plasma was separated and stored at −80° C. In group of PO, blood was collected at 0.25, 0.5, 1, 2, 4, 6, 8, 24 hour after administration, and the other operations were the same as the group of IV. The plasma samples were pretreated through precipitated protein and the plasma concentration was determined by LC/MS/MS method. A linear range of the analytical method was 4.00-6000 nM.

The conditions of series [5]: hepatocyte, dog; cited from earlier work.
For series [6] the following is noted: hepatocyte, rat; cited from earlier work.
The conditions of series [7]: liver microsome, monkey; cited from earlier work.
Where [8] appears, read: male, SD, plasma, iv, 2 mg/kg, IV 2 mpk.
The mark [9] stands for this setting: male, SD, plasma, po, 10 mg/kg, PO 10 mpk.

Where two headings read alike, the source gives them in different places.

For the compound `CC(C)(Sc1nnc(Br)n1-c1c(Cl)cc(C2CC2)c2ccccc12)C(=O)O` (single isomer, unassigned) [(−)-WX004], the IC50 in series [1] came out at 1.1 µM. Besides, the “inhibitory activity against URAT-1 compared with reference (±)-Lesinurad” value in series [1] (URAT1 MDCK cells) was “significantly improved inhibitory activity”.
Taken in the same sequence, the figures for `CC(C)(Sc1nnc(Br)n1-c1c(Cl)cc(C2CC2)c2ccccc12)C(=O)O` (single isomer, unassigned) [(+)-WX005] were 1.4 µM and “significantly improved inhibitory activity”.
As for `O=C(O)CSc1nncn1-c1ccc(C2(O)CC2)c2ccccc12` [Compound M5], the “Percentage of administered dose” value in series [2] (Feces) is 3.6%.
With `O=C(O)CSc1nnc(Br)n1-c1c(Cl)cc(C2CC2)c2ccccc12` (single isomer, unassigned) [(−)-WX001], in series [3], the metabolites detected result is reported as “no metabolites were detected” and the “Percentage of ultraviolet area” value worked out at 100%. Besides, the IC50 in series [1] is 8 µM. Further, in series [1] (URAT1 MDCK cells), the “fold inhibitory activity in vitro compared to the other isomer (+)-WX002” value was “more than 3 fold” and the “inhibitory activity against URAT-1 compared with reference (±)-Lesinurad” value is “significantly improved inhibitory activity”. Moreover, the Tmax in series [4] (male, SD, plasma, 10 mg/kg, PO 10 mpk, read-out: Peak time Tmax) was found to be 1.67 h. Also, the AUC(0-inf) in series [4] (male, SD, plasma, iv, 2 mg/kg, IV 2 mpk, read-out: Area under curve AUC0-inf) came out at 33 µM·h. Moreover, the clearance in series [4] (male, SD, plasma, iv, 2 mg/kg, IV 2 mpk, read-out: Clearance rate Cl) was 2.31 mL/min/kg. Besides, in series [4] (setting [8]), the MRT inf came to 4.4 h, the half-life was 2.86 h and the C0 worked out at 11.7 µM. Moreover, the Vd in series [4] (male, SD, plasma, iv, 2 mg/kg, IV 2 mpk, read-out: apparent volume of distribution Vdss) was 0.61 L/kg. In addition, the bioavailability in series [4] (male, SD, plasma, po, 10 mg/kg, PO 10 mpk, read-out: Bioavailability F) was 94%. Also, in series [4] (setting [9]), the MRT inf was found to be 7.18 h, the half-life is 4.86 h and the Cmax came out at 20.6 µM. Moreover, in series [4] (PO 10 mpk, 10 mg/kg), the “Area under curve AUC0-inf” value worked out at 154.895 µM·h.
For `O=C(O)CSc1nnc(Br)n1-c1c(Cl)cc(C2CC2)c2ccccc12` (single isomer, unassigned) [(+)-WX002], in series [3], the metabolites detected result is given as “no metabolites were detected” and the “Percentage of ultraviolet area” value amounted to 100%. Further, the concentration for half-maximal inhibition (IC50) in series [1] is greater than 20 µM. Also, in series [1] (URAT1 MDCK cells), the “inhibitory activity against URAT-1 compared with reference (±)-Lesinurad” value is “significantly improved inhibitory activity”. Further, in series [4] (IV 2 mpk, 2 mg/kg), the “Area under curve AUC0-inf” value turned out to be 16.775 µM·h, the “Clearance rate Cl” value is 4.56 mL/min/kg, the “Detention time MRT0-inf” value worked out at 3.58 h and the “Half-life T1/2” value stood at 3.51 h. Also, in series [4] (IV 2 mpk, 2 mg/kg), the “apparent volume of distribution Vdss” value stood at 0.97 L/kg and the C0 was determined as 12.9 µM. In addition, the “Peak time Tmax” value in series [4] (PO 10 mpk) was 1.67 h. In series [4] (PO 10 mpk, 10 mg/kg), the “Area under curve AUC0-inf” value was determined as 77.436 µM·h, the “Bioavailability F” value is listed as 76%, the “Detention time MRT0-inf” value was found to be 4.82 h and the “Half-life T1/2” value was 2.68 h. Moreover, the Cmax in series [4] (PO 10 mpk, 10 mg/kg) came out at 12 µM.
Take `O=C(O)CSc1nnc(Br)n1-c1ccc(C2(O)CC2)c2ccccc12` [Compound M3]: the “amount of metabolite / parent found (Total 100)” value in series [5] was “not detected”; in series [6] it was “not detected”; in series [7], 7.9. Also, the “Percentage of administered dose” value is 0.3% in series [2] (Feces) and 12.0% in series [2] (Urine).
On to `O=C(O)CSc1nncn1-c1ccc(C2CC2)c2ccccc12` [Compound M2], for which the results for the “Percentage of administered dose” value in series [2] (Feces) and in series [2] (Urine) were 4.8% and 0.3%, respectively.
For the compound `O=C(O)CSc1nnc(Br)n1-c1c(Cl)cc(C2CC2)c2ccccc12` (racemic) [(±)-WX003], the half-maximal inhibitory concentration (IC50) in series [1] stood at 10.4 µM.
Take `O=C(O)CSc1nnc(Br)n1-c1ccc(C2CC2)c2c1C=CC(O)C2O` (centres unmarked) [Compound M4]: the “amount of metabolite / parent found (Total 100)” value in series [5] and in series [6] was “not detected” in each case. Besides, the “Percentage of administered dose” value in series [2] (Feces) is 5.0%; in series [2] (Urine), 15.7%.

Source of the values: patent US10633351B2, “Halogenated compound and axially chiral isomer thereof” (MEDSHINE DISCOVERY INC., priority 2016, dated 2020).
